Like-named read-outs stand apart in the source and are kept apart here.
Columns and labels:
[1] = system: HCT116 MTAP-deleted cell lines; test: Cell viability assay (CellTiter-Glo, 7 days), HCT116 MTAP-deleted; type: cell-based; parameters: CC50 selectivity: unit not given beside the values
Outline: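 Read-out was CellTiter-Glo luminescence after a 7-day incubation (37 °C, 5% CO2) of HCT116 cells, MTAP-deleted or WT, on dose-response compound plates. CC50 values come from each line; where marked *, selectivity is overstated because poor solubility impaired the WT CC50 measurement.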

[2] = system: Symmetric Di-methyl Arginine (SDMA) signal (PRMT5 inhibition) in HCT116 MTAP-deleted cells; test: Symmetric di-methyl arginine image-based high content screen assay (SDMA assay), HCT116 MTAP-deleted; type: cell-based; conditions: for EC50: class symbols
Outline: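 Read-out is imaging of per-cell mean SDMA immunofluorescence (Alexa 488), with cells segmented by DAPI. Cells, MTAP-deleted or wild-type HCT116, were exposed to compound for 3 days at 37 °C before fixation. EC50 derived by 4-parameter non-linear logistic regression.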

[3] = Homo sapiens, HCT-116, HCT116 MTAP-deleted
[4] = HCT116 WT vs HCT116 MTAP-deleted
[5] = Homo sapiens, HCT-116, cell viability assay, HCT116 MTAP-deleted, class symbols, read-out: CC50

Structure (SMILES)	CC50 ([1]; Homo sapiens, HCT-116, cell viability, HCT116 MTAP-deleted, class symbols, read-out: CC50)	EC50 selectivity ([2]; HCT116 WT versus HCT116 MTAP-deleted)	EC50 [2, 3]	CC50 [1]	CC50 selectivity [1]	EC50 ([2]; HCT116 MTAP-deleted)	EC50 selectivity [2, 4]	CC50 [1, 5]
CN(C(=O)c1cc2c(cc1F)nc(N)c1cncn12)[C@@H]1COc2cc(-n3cnc(C(F)(F)F)c3)ccc21 [Ff-325, (S)-4-amino-7-fluoro-N-methyl-N-(6-(4-(trifluoromethyl)-1H-imidazol-1-yl)-2,3-dihydrobenzofuran-3-yl)imidazo[1,5-a]quinoxaline-8-carboxamide]	< 100 nM	447	≤ 1 nM	–	–	–	–	–
Nc1nc2cnc(C(=O)N3CCC[C@@H]4Oc5cc(S(F)(F)(F)(F)F)ccc5[C@@H]43)cc2n2cncc12 [Fg-42, (4-aminoimidazo[1,5-a]pyrido[3,4-e]pyrazin-8-yl)((4aS,9bS)-7-(pentafluoro-16-sulfaneyl)-3,4,4a,9b-tetrahydrobenzofuro[3,2-b]pyridin-1(2H)-yl)methanone]	–	–	–	< 100 nM	38	≤ 1 nM	57	–
C[C@H](c1ncccn1)N(Cc1ccc(C(F)(F)F)cn1)C(=O)c1cc2c(cc1F)nc(N)n1cncc21 [Fg-4, (R)-5-amino-8-fluoro-N-(1-(pyrimidin-2-yl)ethyl)-N-((5-(trifluoromethyl)pyridin-2-yl)methyl)imidazo[1,5-c]quinazoline-9-carboxamide]	–	–	1 to 5 nM	–	–	–	23	100 to 1000 nM
Cc1ncn2c1c(N)nc1cnc(C(=O)N3C[C@H](C)C[C@@H]4Oc5cc(OC(F)(F)F)ccc5[C@@H]43)cc12 [Ff-619, (4-amino-3-methylimidazo[1,5-a]pyrido[3,4-e]pyrazin-8-yl)((3R,4aS,9bS)-3-methyl-7-(trifluoromethoxy)-3,4,4a,9b-tetrahydrobenzofuro[3,2-b]pyridin-1(2H)-yl)methanone]	–	–	1 to 5 nM	–	–	–	58	< 100 nM
Cc1ncn2c(N)nc3ccc(C(=O)N(Cc4ccc(C(F)(F)F)cn4)[C@H](C)c4ncccn4)cc3c12 [Fg-2, (R)-5-amino-1-methyl-N-(1-(pyrimidin-2-yl)ethyl)-N-((5-(trifluoromethyl)pyridin-2-yl)methyl)imidazo[1,5-c]quinazoline-9-carboxamide]	–	–	1 to 5 nM	–	–	–	39	< 100 nM
CN(C(=O)c1ccc2nc(N)c3cncn3c2c1)[C@@H]1COc2cc(Cl)ccc21 [Ff-566, (S)-4-amino-N-(6-chloro-2,3-dihydrobenzofuran-3-yl)-N-methylimidazo[1,5-a]quinoxaline-8-carboxamide]	–	–	1 to 5 nM	–	–	–	497	100 to 1000 nM
CN(C(=O)c1cc2c(cc1F)nc(N)c1cncn12)[C@@H]1COc2cc(-n3cc(C(F)(F)F)cn3)ccc21 [Ff-545, (S)-4-amino-7-fluoro-N-methyl-N-(6-(4-(trifluoromethyl)-1H-pyrazol-1-yl)-2,3-dihydrobenzofuran-3-yl)imidazo[1,5-a]quinoxaline-8-carboxamide]	–	–	1 to 5 nM	–	–	–	157	< 100 nM

From patent publication US12448388B2, “PRMT5 inhibitors and uses thereof” (Gilead Sciences, Inc., priority 2023, dated 2025)
